The source of these data is ChEMBL document CHEMBL1201862, “PubChem BioAssay data set” (2004).

The target in one experiment is T1, Hexokinase HKDC1 (Homo sapiens, UniProt Q2TB90).
T1 sequence (Q2TB90 whole entry): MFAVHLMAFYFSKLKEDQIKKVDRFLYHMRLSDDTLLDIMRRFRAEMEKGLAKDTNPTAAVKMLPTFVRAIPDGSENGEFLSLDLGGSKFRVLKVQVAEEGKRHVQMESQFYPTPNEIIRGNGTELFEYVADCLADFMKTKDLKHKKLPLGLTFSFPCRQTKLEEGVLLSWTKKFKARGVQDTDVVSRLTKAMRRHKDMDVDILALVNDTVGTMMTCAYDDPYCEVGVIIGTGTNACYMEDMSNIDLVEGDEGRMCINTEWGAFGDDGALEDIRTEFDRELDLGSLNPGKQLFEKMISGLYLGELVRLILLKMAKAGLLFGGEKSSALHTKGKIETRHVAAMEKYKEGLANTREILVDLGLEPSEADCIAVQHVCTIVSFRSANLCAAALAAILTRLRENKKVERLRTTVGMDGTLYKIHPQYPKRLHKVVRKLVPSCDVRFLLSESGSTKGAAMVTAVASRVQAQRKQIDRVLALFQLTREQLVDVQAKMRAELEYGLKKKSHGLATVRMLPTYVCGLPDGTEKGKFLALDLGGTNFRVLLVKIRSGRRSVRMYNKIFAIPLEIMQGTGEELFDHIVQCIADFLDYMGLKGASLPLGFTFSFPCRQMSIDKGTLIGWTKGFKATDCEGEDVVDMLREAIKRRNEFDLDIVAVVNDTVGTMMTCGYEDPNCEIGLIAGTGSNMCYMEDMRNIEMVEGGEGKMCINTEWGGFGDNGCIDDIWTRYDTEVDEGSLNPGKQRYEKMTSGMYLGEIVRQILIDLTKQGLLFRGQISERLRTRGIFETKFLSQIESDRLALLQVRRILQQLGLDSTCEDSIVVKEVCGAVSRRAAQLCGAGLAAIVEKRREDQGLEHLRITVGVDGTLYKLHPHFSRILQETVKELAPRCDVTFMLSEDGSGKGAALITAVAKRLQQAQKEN
Description: HKDC1 hexokinase activators, dose response, biochemical, W721R variant (AID 504730). Type of experiment: functional.

The next experiment has as its target T2, Hexokinase-1 (Homo sapiens, UniProt P19367).
T2 sequence (P19367 whole entry): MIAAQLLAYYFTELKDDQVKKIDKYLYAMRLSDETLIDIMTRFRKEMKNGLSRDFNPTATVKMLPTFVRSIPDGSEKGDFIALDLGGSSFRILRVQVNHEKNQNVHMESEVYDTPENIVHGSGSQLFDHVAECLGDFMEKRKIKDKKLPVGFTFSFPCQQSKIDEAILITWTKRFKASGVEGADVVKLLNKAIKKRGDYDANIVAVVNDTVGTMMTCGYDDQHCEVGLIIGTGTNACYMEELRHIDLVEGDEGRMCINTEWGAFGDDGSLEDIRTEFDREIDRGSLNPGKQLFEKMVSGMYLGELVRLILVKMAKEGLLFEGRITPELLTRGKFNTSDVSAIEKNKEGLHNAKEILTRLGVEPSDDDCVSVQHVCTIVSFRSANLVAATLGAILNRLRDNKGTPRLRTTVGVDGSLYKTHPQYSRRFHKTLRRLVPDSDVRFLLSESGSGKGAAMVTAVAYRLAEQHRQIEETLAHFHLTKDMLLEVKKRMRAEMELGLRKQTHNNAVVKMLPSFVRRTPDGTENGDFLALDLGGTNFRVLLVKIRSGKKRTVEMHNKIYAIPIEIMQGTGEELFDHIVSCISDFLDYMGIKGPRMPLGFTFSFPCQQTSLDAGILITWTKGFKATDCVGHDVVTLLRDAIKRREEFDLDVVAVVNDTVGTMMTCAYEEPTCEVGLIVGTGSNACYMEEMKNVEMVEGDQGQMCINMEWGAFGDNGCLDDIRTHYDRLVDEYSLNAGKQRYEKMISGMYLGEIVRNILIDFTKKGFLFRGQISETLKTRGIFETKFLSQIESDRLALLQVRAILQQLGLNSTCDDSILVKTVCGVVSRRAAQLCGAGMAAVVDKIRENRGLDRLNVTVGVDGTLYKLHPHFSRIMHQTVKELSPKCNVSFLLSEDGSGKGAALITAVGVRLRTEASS
Description: hexokinase 1 activators, dose response, selectivity assay for HKDC1 activator project, biochemical (AID 504762). In kind it is functional.

The next experiment deals with T3, CAAX prenyl protease 2 (Saccharomyces cerevisiae S288c, UniProt Q03530).
T3 sequence (Q03530 whole entry): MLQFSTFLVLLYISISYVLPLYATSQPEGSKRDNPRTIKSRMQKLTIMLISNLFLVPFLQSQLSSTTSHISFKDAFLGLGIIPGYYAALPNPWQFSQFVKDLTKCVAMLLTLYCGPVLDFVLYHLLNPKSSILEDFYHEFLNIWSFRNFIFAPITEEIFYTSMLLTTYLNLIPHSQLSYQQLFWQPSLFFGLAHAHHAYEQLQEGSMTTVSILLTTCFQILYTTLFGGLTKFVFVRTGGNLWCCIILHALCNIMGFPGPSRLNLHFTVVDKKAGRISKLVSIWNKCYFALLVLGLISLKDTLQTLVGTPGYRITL
Type of experiment: biochemical.

Experiment [1] has as its target T4, Heat shock factor protein 1 (Mus musculus, UniProt P38532).
T4 sequence (P38532 whole entry): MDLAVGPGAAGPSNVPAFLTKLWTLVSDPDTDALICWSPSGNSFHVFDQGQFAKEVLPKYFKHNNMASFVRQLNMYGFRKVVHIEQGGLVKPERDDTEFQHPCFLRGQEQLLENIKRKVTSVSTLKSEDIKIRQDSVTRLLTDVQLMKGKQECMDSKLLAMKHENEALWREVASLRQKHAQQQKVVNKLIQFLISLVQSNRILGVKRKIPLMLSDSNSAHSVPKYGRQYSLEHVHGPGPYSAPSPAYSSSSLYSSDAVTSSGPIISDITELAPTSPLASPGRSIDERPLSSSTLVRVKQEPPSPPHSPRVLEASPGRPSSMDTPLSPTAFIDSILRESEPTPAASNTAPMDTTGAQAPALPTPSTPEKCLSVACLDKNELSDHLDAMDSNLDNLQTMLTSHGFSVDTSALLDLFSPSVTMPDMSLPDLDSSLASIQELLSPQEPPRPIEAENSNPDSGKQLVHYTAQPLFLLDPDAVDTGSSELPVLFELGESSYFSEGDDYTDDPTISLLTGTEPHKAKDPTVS
The experiment is described as follows: HSF1 potentiators in luciferase reporter cells, confirmation, cell-based, NIH3T3, luminescence, dose retest (AID 435004).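 Also: stress induced by proteasome inhibitor MG132 added 30 min after compound; luciferase reporter driven by HSF1 response element in NIH3T3 cells; actives raise luminescence as potentiators of the MG132 stress response.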 In kind it is functional. For orientation: In a reporter assay the amount or activity of a reporter protein is the signal.

Experiment [2] concerns the target DNA damage-inducible transcript 3 protein (Mus musculus, UniProt P35639). Type of experiment: functional, Cricetulus griseus.
The target of experiment [3] is Tyrosine-protein phosphatase non-receptor type 12 (Homo sapiens, UniProt Q05209). Description: SAR Selectivity Analysis of small molecule inhibitors of PEST using pCAP in a fluorescence assay. [Related pubchem assays (depositor defined):AID1779, AID1784, AID2135]. In kind it is functional.
Experiment [4] deals with T5, Dual specificity protein phosphatase 3 (Homo sapiens, UniProt P51452). The experiment is described as follows: SAR VHR1 absorbance Assay for In Vitro dose response studies. [Related pubchem assays (depositor defined):AID1654, AID1661, AID1878, AID1992, AID2004].
Experiment [5] concerns the target T5, Dual specificity protein phosphatase 3. Description: SAR VHR1 Fluorescent Assay for In Vitro dose response studies. [Related pubchem assays (depositor defined):AID1654, AID1661, AID1878, AID1992, AID2004, AID2070, AID2085]. Type of experiment: functional.
The target of experiment [6] is T6, Tyrosine-protein phosphatase non-receptor type 22 (Homo sapiens, UniProt Q9Y2R2).
T6 sequence (Q9Y2R2 whole entry): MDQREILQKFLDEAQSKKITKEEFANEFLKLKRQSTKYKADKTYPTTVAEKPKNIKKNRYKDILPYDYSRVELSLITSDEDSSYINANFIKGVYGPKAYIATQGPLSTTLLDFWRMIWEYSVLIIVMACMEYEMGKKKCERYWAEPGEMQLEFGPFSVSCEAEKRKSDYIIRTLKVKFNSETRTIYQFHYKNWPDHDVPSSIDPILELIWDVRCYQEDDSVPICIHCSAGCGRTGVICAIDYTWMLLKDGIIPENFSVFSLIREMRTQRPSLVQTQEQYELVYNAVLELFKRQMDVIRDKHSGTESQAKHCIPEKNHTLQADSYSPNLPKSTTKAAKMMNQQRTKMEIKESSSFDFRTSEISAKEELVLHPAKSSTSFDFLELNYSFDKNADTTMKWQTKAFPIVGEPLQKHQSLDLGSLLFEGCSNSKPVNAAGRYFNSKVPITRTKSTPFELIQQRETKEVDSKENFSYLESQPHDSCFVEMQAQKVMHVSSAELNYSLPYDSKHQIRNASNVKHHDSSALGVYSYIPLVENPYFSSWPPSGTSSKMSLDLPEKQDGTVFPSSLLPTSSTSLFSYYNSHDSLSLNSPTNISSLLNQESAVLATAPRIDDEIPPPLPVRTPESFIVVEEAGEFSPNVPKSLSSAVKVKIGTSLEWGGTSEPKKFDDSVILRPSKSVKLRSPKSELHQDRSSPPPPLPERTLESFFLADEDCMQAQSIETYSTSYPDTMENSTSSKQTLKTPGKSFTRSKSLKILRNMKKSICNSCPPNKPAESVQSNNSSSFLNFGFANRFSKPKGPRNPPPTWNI
Description: SAR LYP1 Fluorescent Assay using OMFP substrate for In Vitro dose response studies - Set 3. [Related pubchem assays (depositor defined):AID1779, AID1784, AID2140, AID2686]. In kind it is functional.

In experiment [7] the target is T7, Tyrosine-protein phosphatase non-receptor type 7 (Homo sapiens, UniProt P35236).
T7 sequence (P35236 whole entry): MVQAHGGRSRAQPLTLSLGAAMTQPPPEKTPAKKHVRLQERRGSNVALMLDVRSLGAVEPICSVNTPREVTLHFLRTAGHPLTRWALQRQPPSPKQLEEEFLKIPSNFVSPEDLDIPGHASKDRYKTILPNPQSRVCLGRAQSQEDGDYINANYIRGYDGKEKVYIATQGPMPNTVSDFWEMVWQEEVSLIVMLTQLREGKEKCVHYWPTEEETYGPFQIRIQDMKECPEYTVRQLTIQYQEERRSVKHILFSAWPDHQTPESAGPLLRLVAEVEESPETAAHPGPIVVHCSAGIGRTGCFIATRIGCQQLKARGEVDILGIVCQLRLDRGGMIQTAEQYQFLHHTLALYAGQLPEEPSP
Description: redox-dependent HePTP inhibition, mechanism study, biochemical, fluorescence (AID 2068). Type of experiment: functional.

Experiment [8] deals with T7, Tyrosine-protein phosphatase non-receptor type 7. Description: HePTP (PTPN7) phosphatase inhibitor potency, SAR follow-up, biochemical, set 2 (AID 449736). In kind it is functional.
Experiment [9] addresses T6, Tyrosine-protein phosphatase non-receptor type 22. Description: LYP (PTPN22) phosphatase inhibitor potency, SAR follow-up, biochemical, pCAP fluorogenic substrate, fluorescence, set 3 (AID 449727). In kind it is functional.
For experiment [10], the target named is T8, Dual specificity protein phosphatase 6 (Rattus norvegicus, UniProt Q64346).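 Also: confirmatory in vitro dose-response testing of MKP-3 inhibition; recombinant His-tagged MKP-3 made in E. coli BL21 with OMFP substrate.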
T8 sequence (Q64346 whole entry): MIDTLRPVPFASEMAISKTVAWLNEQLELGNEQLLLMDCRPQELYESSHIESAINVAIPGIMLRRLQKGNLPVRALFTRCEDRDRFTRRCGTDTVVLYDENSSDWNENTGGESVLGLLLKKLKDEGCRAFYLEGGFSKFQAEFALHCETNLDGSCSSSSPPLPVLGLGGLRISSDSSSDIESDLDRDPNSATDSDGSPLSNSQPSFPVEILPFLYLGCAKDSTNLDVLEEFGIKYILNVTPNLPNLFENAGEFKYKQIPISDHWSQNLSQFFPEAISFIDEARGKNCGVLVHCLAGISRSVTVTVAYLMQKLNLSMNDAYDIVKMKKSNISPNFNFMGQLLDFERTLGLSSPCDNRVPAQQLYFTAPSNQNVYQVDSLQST
Type of experiment: functional.

Calls of active or inactive are those of the source. Rule as the data show it, for most assays here: actives have a measured IC50 and inactives only a lower limit.

What is called EC50 is the concentration that produces a half-maximal response. One may read the AC50 as the midpoint of the concentration-response curve, whichever way the signal moves. The IC50 is the point on the concentration scale where inhibition reaches its midpoint.

T5 sequence (P51452 whole entry): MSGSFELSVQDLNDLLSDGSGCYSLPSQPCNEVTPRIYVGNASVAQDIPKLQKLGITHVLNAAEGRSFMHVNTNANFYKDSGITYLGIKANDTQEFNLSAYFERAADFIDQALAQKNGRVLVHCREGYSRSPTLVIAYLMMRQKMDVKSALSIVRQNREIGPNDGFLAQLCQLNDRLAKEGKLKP
Tyrosine-protein phosphatase non-receptor type 12, sequence (Q05209 whole entry): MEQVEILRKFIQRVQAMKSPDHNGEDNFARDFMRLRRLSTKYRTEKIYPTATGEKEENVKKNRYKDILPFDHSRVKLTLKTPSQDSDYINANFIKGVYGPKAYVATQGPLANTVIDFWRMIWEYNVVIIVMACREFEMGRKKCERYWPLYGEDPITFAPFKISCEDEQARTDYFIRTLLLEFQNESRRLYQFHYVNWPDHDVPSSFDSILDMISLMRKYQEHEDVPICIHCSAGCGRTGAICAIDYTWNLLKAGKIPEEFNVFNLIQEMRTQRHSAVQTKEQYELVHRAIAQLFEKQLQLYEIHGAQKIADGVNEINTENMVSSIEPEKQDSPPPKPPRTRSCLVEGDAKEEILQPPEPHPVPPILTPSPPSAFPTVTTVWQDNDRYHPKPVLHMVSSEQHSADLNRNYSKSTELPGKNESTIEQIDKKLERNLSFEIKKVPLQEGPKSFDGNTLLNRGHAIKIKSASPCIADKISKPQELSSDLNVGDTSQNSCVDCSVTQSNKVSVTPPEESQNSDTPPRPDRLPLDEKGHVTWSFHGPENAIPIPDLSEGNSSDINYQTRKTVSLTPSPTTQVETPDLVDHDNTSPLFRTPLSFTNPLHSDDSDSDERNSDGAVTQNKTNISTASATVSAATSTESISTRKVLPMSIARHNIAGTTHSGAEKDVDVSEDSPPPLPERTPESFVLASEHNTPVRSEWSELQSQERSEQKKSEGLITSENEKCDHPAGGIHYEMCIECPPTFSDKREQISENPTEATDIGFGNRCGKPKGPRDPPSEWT
DNA damage-inducible transcript 3 protein, sequence (P35639 whole entry): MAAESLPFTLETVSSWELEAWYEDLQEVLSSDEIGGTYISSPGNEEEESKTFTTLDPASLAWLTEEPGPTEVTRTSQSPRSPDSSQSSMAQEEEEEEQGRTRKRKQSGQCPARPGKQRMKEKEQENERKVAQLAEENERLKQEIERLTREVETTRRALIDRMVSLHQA

Turning to `O=S(=O)(c1ccc(NC(=S)NN=C(Cc2ccccc2)Cc2ccccc2)cc1)N1CCOCC1`, the EC50 on Hexokinase HKDC1 is 7.65 µM (active); on Hexokinase-1, > 80 µM (inactive).

For the molecule `O=NNc1nc2ccccc2n1Cc1ccccc1`, the EC50 is 18.3 µM (active) on Hexokinase HKDC1 and > 80 µM (inactive) on Hexokinase-1.

Take `CC1(C)CC2CC(C)(CN2S(=O)(=O)c2ccc(N)cc2)C1` (stereo not given): the half-maximal activity concentration (AC50) on CAAX prenyl protease 2 is 93.4 µM (active).

Turning to `Cc1cccc(C)c1N1CCN(c2ccc3nnc(C(F)(F)F)n3n2)CC1`, the EC50 in experiment [1] is 70 µM (active). For the same molecule, in experiment [2], the “Absolute IC50 (CHOP)” value was 10 µM.

Turning to `CSc1ccc(OCC(=O)O)cc1C`, the IC50 was > 100 µM (inactive) in [3]; > 100 µM (inactive) in experiment [4]; > 99 µM (inactive) in experiment [5]; > 100 µM (inactive) in experiment [6]; > 100 µM (inactive) in [7]; > 100 µM (inactive) in experiment [8]. For the same molecule, the IC50 is > 100 µM (inactive) in [9] and > 99 µM (inactive) in experiment [10].
